Assay results from patent US5807691A, “Polypeptides having serotonin receptor activity (5HT5A), nucleic acids coding for these polypeptides and uses thereof” (Institut National De La Sante et Da La Recherche Medicale, priority 1992, dated 1998).
Where two headings read alike, the source gives them in different places.

Tests used:
5HT5a receptor [1] = assay: Saturation binding of radiolabelled serotonin ligands to membranes of Cos-7 cells expressing the 5HT5a receptor; set-up: species or system rat; settings: 10 minutes at 37° C., 50 mM Tris-HCl pH 7.4
Description: The specific binding is shown.
(§1) Radioactivity was measured with a γ counter.

5HT1D [2] = settings: cited from earlier work
5HT1D [3] = settings: cited from earlier work; remark: listed apart in the source
5HT5a receptor [4] = target: 5HT5a receptor
5HT5a receptor [5] = system: 5HT5a receptor; remark: listed apart in the source
5HT5a receptor [6] = assay: [^125 I]-LSD binding to membranes of NIH-3T3 clones NS1 and NS4 expressing the 5HT5a receptor; set-up: species or system rat
Description: as §1
For this purpose, the recombinant expression vector described in 3. above was used. […] The transformant clones were selected in the presence of 0.5 mg of G418. The clones isolated were then amplified, and the total RNAs of these clones were prepared and analysed by Northern blotting for the expression of 5HT5a mRNA.
The membranes of the cells of these clones were then prepared and tested under the conditions described above for their capacity to bind some labelled serotonin ligands, and to determine the affinity of the receptors for the said ligands.
Different displacement experiments were then carried out (Table 1).

SMILES	pKi 5HT1D (rat cortex) (5HT1D [3])	pKi 5HT1D (Calf caudate) (5HT1D [2]; Calf caudate)	other results
CC(C)(C)NCC(O)COc1cccc2[nH]c(C#N)c([125I])c12 (stereo not drawn) [[^125 I]-cyanopindolol]	–	–	binding of radiolabelled ligand to membranes of transfected Cos-7 cells (5HT5a receptor [1]): do not bind
COC(=O)[C@@H]1[C@H]2C[C@H]3c4[nH]c5ccccc5c4CCN3C[C@@H]2CC[C@@H]1O [Yohimbine]	–	–	pKi 5HT1D (Calf caudate) (5HT1D [2]): 7.1
CCCN(CCC)C1CCc2cccc(O)c2C1 (stereo not drawn) [8-OH-DPAT]	6.6	5.9	–
NC[C@H](O)c1ccc(O)c(O)c1 [(-)Norepinephrine]	–	–	Ki (5HT5a receptor [4]): 1580 µM
NCCc1c[nH]c2ccc(O)cc12 [5-HT, 5-hydroxytryptamine]	8.7	8.4	–
NCCc1c[nH]c2ccc(C(N)=O)cc12 [5-CT]	8.6	8.6	–
O=C(CCCN1CCC2(CC1)C(=O)NCN2c1ccccc1)c1ccc(F)cc1 [[^3 H]-spiperone]	–	–	binding of radiolabelled ligand to membranes of transfected Cos-7 cells (5HT5a receptor [1]): do not bind
CC(C)NCC(O)COc1cccc2[nH]ccc12 (racemic) [(±)Pindolol]	< 5	5.2	–
O=C(c1ccc(F)cc1)C1CCN(CCn2c(=O)[nH]c3ccccc3c2=O)CC1 [Ketanserin]	< 5	5.7	Ki (5HT5a receptor [4]): 15.8 µM
CN(C)CCc1c[nH]c2ccc(O)cc12 [Bufotenine]	–	8.1	–
CN1C[C@H](C(=O)N[C@]2(C)O[C@@]3(O)[C@@H]4CCCN4C(=O)[C@H](Cc4ccccc4)N3C2=O)C=C2c3cccc4[nH]cc(c34)C[C@H]21 [Ergotamine]	–	–	pKi 5HT5 (Cos-7) (5HT5a receptor [5]): 8.4; pKi 5HT1D (Calf caudate) (5HT1D [2]): 7.8
NCCc1ccc(O)c(O)c1 [Dopamine]	–	–	Ki (5HT5a receptor [4]): 79.4 µM
CCCN(CCC)C1CCc2cccc(O)c2C1 (stereo not drawn) [[^3 H]-8-OH-DPAT]	–	–	binding of radiolabelled ligand to membranes of transfected Cos-7 cells (5HT5a receptor [1]): do not bind
CCN(CC)C(=O)[C@@H]1C=C2c3cccc4[nH]c([125I])c(c34)C[C@H]2N(C)C1 [[^125 I]-LSD]	–	–	binding sites for [^125 I]-LSD on membranes of clones NS1 and NS4 (5HT5a receptor [6]): high-affinity binding sites; binding of radiolabelled ligand to membranes of transfected Cos-7 cells (5HT5a receptor [1]): possesses a saturable binding site; Kd (5HT5a receptor [1]; Cos-7 membranes, non-specific binding with 10 μM 5HT, FIG. 2): 0.00034 µM
CNS(=O)(=O)Cc1ccc2[nH]cc(CCN(C)C)c2c1 [Sumatriptan]	–	7.5	–
FC(F)(F)c1cccc(N2CCNCC2)c1 [TFMPP]	6.6	6.2	–
COc1ccc2[nH]cc(C3=CCNCC3)c2c1 [RU24969]	–	7.3	–
